Assay results published in the supplement of paper PMC10011410.
± gives the standard deviation of the averaged measurements.

Tests used:
U-2 OS [1] = assay: cell viability (CellTiter-Glo) relative to DMSO (% of control); higher = more viable; settings: 24 h
In short: (§1)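 Pin-tool treatment of U-2 OS cells began 24 h after seeding at 750 per well in white low-volume 384-well plates, using 20, 10 and 5 μM for most compounds and 0.4% DMSO, for 24 h at 37 °C. For the glutathione plates, GSH/GSSG-Glo reagents were diluted three-fold in PBS, and each plate held GSH standards. Total glutathione, GSSG and viability (CellTiter-Glo) were taken as luminescence on separate plates and are reported relative to vehicle or as a GSH:GSSG ratio after background and row/column correction.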

U-2 OS [2] = assay: relative cell count vs DMSO (cell painting) (fraction of DMSO control); higher = more cells remaining (less cytotoxic); settings: 24 h
In short: (§2)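 Cell painting used U-2 OS cells at about 1,500 per well in 384-well plates, treated by pin tool for 24 h at 37 °C, usually at six 2-fold concentrations from 20 μM to 625 nM. Cells were stained with MitoTracker, concanavalin A, phalloidin, wheat germ agglutinin, Hoechst and SYTO 14 and imaged on an Opera Phenix. Features were extracted with CellProfiler and normalized to DMSO cells on the same plate. The activity score is the Mahalanobis distance from DMSO wells; cell count is relative to DMSO wells. Values are means of four replicate plates.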

U-2 OS [3] = assay: AUC of culture confluence over time (live-cell imaging) (AUC (confluence % x time)); higher = more confluent culture (less growth inhibition)
In short: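 Live-cell imaging tracked confluence of U-2 OS cells grown in F-12K medium plus 10% FBS. After seeding at 750 cells per well in 384-well plates, cells received compounds by pin tool 24 h later, mostly at 20, 10 and 5 μM, with 0.2% DMSO. Plates stayed at 37 °C and were imaged every 4 h for up to 60 h. Each value is the area under the confluence-versus-time curve.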

U-2 OS [4] = assay: total intracellular glutathione (GSH + GSSG) relative to DMSO (% of control); higher = more glutathione; settings: 24 h
In short: as §1

U-2 OS [5] = assay: intracellular GSH:GSSG ratio (calculated); higher = more reduced glutathione pool; settings: 24 h
In short: as §1

U-2 OS [6] = assay: cell painting activity score (Mahalanobis distance from DMSO wells); higher = stronger morphological phenotype; settings: 24 h
In short: as §2

Structure (SMILES)	cell viability (U-2 OS [1]; 5 µM)	cell viability (U-2 OS [1]; 10 µM)	cell viability (U-2 OS [1]; 20 µM)	relative cell count (U-2 OS [2]; 0.625 µM)	relative cell count (U-2 OS [2]; 1.25 µM)	relative cell count (U-2 OS [2]; 2.5 µM)	relative cell count (U-2 OS [2]; 5 µM)	relative cell count (U-2 OS [2]; 10 µM)	relative cell count (U-2 OS [2]; 20 µM)	AUC of culture confluence over time (U-2 OS [3]; 5 µM)	AUC of culture confluence over time (U-2 OS [3]; 10 µM)	AUC of culture confluence over time (U-2 OS [3]; 20 µM)	total intracellular glutathione (U-2 OS [4]; 5 µM)	total intracellular glutathione (U-2 OS [4]; 10 µM)	total intracellular glutathione (U-2 OS [4]; 20 µM)	intracellular GSH:GSSG ratio (U-2 OS [5]; 5 µM)	intracellular GSH:GSSG ratio (U-2 OS [5]; 10 µM)	intracellular GSH:GSSG ratio (U-2 OS [5]; 20 µM)	cell painting activity score (U-2 OS [6]; 0.625 µM)	cell painting activity score (U-2 OS [6]; 1.25 µM)	cell painting activity score (U-2 OS [6]; 2.5 µM)	cell painting activity score (U-2 OS [6]; 5 µM)	cell painting activity score (U-2 OS [6]; 10 µM)	cell painting activity score (U-2 OS [6]; 20 µM)	cell viability (U-2 OS [1]; 40 µM)	cell viability (U-2 OS [1]; 80 µM)	relative cell count (U-2 OS [2]; 40 µM)	relative cell count (U-2 OS [2]; 80 µM)	AUC of culture confluence over time (U-2 OS [3]; 40 µM)	AUC of culture confluence over time (U-2 OS [3]; 80 µM)	total intracellular glutathione (U-2 OS [4]; 40 µM)	total intracellular glutathione (U-2 OS [4]; 80 µM)	intracellular GSH:GSSG ratio (U-2 OS [5]; 40 µM)	intracellular GSH:GSSG ratio (U-2 OS [5]; 80 µM)	cell painting activity score (U-2 OS [6]; 40 µM)	cell painting activity score (U-2 OS [6]; 80 µM)	AUC of culture confluence over time (U-2 OS [3]; 0.625 µM)	AUC of culture confluence over time (U-2 OS [3]; 1.25 µM)	AUC of culture confluence over time (U-2 OS [3]; 2.5 µM)
Nc1nc(-c2ccccc2)ns1	104 ± 5.4	104 ± 3	101 ± 6.3	1	0.944	0.943	0.973	1	1.01	44.7	46.7	45.6	107 ± 7.8	89.3 ± 4	117 ± 7.1	29.7	23.5	27.1	3.85	4.11	4.04	3.13	2.93	3.84															
Cn1nnnc1SC1=CS(=O)(=O)c2ccccc21	54.9 ± 6.7	65.2 ± 7.2	6.9 ± 1.4	0.936	0.834	0.727	0.392	0.322	0.255	19.6	16	12.1	59.4 ± 4.2	85.3 ± 12	23.3 ± 3.9	3.69	2.11	0.199	5.5	8.76	12	21.3	13.8	21.5															
Cc1cc(NC(=O)c2cccc(NC(=O)/C=C/CN(C)C)c2)ccc1Nc1nccc(-c2cccnc2)n1	102 ± 7.2	98.9 ± 2.7	78.6 ± 5.4	0.888	0.863	0.841	0.839	0.742	0.425	45.6	31.1	15.2	93.9 ± 3.6	94.7 ± 6.5	72.6 ± 3.4	23.3	21	8.13	10.3	11.4	11	10.8	11.1	13															
O=C(O[C@@H]1Cc2c(O)cc(O)cc2O[C@@H]1c1cc(O)c(O)c(O)c1)c1cc(O)c(O)c(O)c1	98.8 ± 3.2	97.6 ± 4.7	69.1 ± 19	0.966	1	0.981	0.96	0.989	0.897	48.7	49.6	48.6	96 ± 2.7	102 ± 5.6	63.7 ± 3.8	24.8	18.8	11.4	3.76	4.88	4.25	4.82	5.68	10.4	83 ± 14	43.2 ± 2.7	0.843	0.466	41.4	28.3	77.8 ± 5.7	53.9 ± 4.4	14	12	4.51	14.8			
C[C@H]1CCC/C=C/[C@@H]2C[C@H](O)C[C@H]2[C@H](O)/C=C/C(=O)O1	62.9 ± 3.7	64.5 ± 1.9	63.8 ± 3.9	0.653	0.645	0.645	0.629	0.562	0.479	18.6	18.1	18.2	54 ± 2.2	41.5 ± 18	45.2 ± 18	26.9	17.4	16.1	15.2	14.7	15.3	15.9	15.9	17.6															
COc1ccc(/C(Cl)=C(\C=O)c2ccc(OC)cc2)cc1	101 ± 3.7	102 ± 3.2	99.8 ± 6.2	1	0.996	1.01	0.987	0.98	0.996	45.3	38.1	35.7	125 ± 6.9	125 ± 4.8	111 ± 2.4	20.2	16.5	15.7	6.88	4.52	5.61	10.1	11.3	12	77.1 ± 5	69.9 ± 4.5					76.7 ± 2.6	79.8 ± 4.3	7.85	9.31					
CCC(=O)N1CCN(c2ccc(-n3c(=O)ccc4cnc5ccc(-c6cnc7ccccc7c6)cc5c43)cc2C(F)(F)F)CC1	66.4 ± 3.2	66.8 ± 3.4	61.4 ± 4	0.752	0.716	0.68	0.714	0.683	0.656	26.9	27.2	26.1	58.8 ± 4.2	58.6 ± 4.8	64 ± 3.3	16.1	15	13.4	12.8	12.6	12.4	13.4	13.2	14.2															
O=C1C=CC(=O)N1c1ccccc1	81.7 ± 12	14.3 ± 4.6	4.32 ± 3.1	1.02	1.06	0.8	0.602	0.224	0.317	13.1	14.2	13.5	114 ± 9.5	23.6 ± 7.2	14.3 ± 6.1	20.1	4.06	17.8	4.85	4.24	9.29	14.7	19.6	16.3															
O=C1CC(Nc2ccccc2)C(=O)N1Cc1ccccc1 (stereo not drawn)	116 ± 4.3	106 ± 4.3	100 ± 4.4	1.01	1.03	1.03	0.984	0.96	1.05	48	38.3	43.1	92.2 ± 3.2	94.5 ± 4.7	102 ± 6.3		33.5	34.3	3.91	3.72	3.99	4.03	4.46	3.59															
COC(=O)Nc1nc2ccc(C(=O)c3cccs3)cc2[nH]1	54.8 ± 7	47.5 ± 5.7	52.3 ± 9.2	0.272 ± 0.056	0.265 ± 0.032	0.243 ± 0.033	0.232 ± 0.034	0.222 ± 0.035	0.211 ± 0.036	20.2	18.8	24.1	53.1 ± 6.4	50.2 ± 4.2	51.4 ± 6	3.33	2.36	2.95	19.6 ± 2.7	18.4 ± 2.2	21.5 ± 2.2	22.3 ± 1.8	22.7 ± 1.8	23.1 ± 1.4													20.9	19.1	21.5
C[C@@H]1C[C@H]2O[C@@H]2/C=C\C=C\C(=O)Cc2c(Cl)c(O)cc(O)c2C(=O)O1	86.8 ± 3	24.7 ± 2.7	4.77 ± 0.71	0.852 ± 0.039	0.731 ± 0.047	0.597 ± 0.06	0.466 ± 0.042	0.419 ± 0.033	0.388 ± 0.018	19.9	21.3	20.2	87.8 ± 4.1	36 ± 6.1	12.9 ± 0.62	27	7.74	3.63	14.6 ± 1.8	14.1 ± 1.8	15.2 ± 1.9	16.2 ± 1.9	16.1 ± 1.1	15.3 ± 0.8													57.8	48.6	46.8
COc1ccc(N2C(=O)CC(Sc3nnc(-c4ccccc4)o3)C2=O)cc1 (stereo not drawn)	105 ± 6.2	91.8 ± 19	9.21 ± 6.6	1.1	1.07	1.16	1.08	1.1	0.796	24.5	11.3	11.9	97.4 ± 5.6	97.1 ± 17	20 ± 8	26.4	14.5	4.1	2.96	3.59	3.44	4.49	6.07	11.5															
CCCCCCCc1ccc(CCc2cccc(O)c2C(=O)O)cc1	98.6 ± 2.9	98.6 ± 4.4	94.4 ± 4.6	1.05	1.11	1.12	1.11	1.11	0.741	41.6	34.5	31.5	93.7 ± 3.8	93.1 ± 7.4	83.9 ± 4	21.3	17.1	15.3	4.31	3.72	4.79	5.56	4.29	6.6	66.6 ± 7.9	17.1 ± 8.5	0.307	0.365	24.6	17.9	62.5 ± 9.8	30.7 ± 11	15.7	11.3	19.1	23.3			
CCCCCCCCCCCCCCCc1cccc(O)c1C(=O)O	102 ± 3	106 ± 5.8	100 ± 2.9	1.09	1.09	1.13	1.05	1.01	1.05	42.7	53.4	52.9	105 ± 3.3	94.7 ± 4.2	98.8 ± 4.7	19	18.3	24.7	3.17	3.13	3.54	3.63	4.51	3.58	104 ± 4.9	101 ± 5.3	0.326	0.342	51.2	40.9	95.5 ± 3.8	96.7 ± 3.9	19.7	18.1	12.9	21			
